Assay results from ChEMBL document CHEMBL6109039, “Designed and synthesized novel tripeptides targeting diabetes and its related pathologies” (Eur J Med Chem, 2025).
Residues, ends and D or L forms follow the SMILES beside them.

Key:
[1] = target: T1, Albumin (Homo sapiens, UniProt P02768); test: Inhibition of D-fructose glycation in human serum albumin model by measuring absorbance at 279 nm incubated for 7 days by UV spectroscopic analysis (reference value: 1.072); details: 168 h, time 7 day
[2] = target: T1, Albumin; test: Inhibition of D-fructose glycation in human serum albumin model by measuring ketoamine moieties incubated for 5 days by Nitroblue tetrazolium (NBT) reduction assay (reference value: 111.94 nmol/mL); details: 120 h, time 5 day
[3] = target: T1, Albumin; test: Inhibition of D-fructose glycation in human serum albumin model assessed as reduction in fluorescence intensity incubated for 3 days by UV spectroscopic analysis relative to control; details: 72 h, time 3 day
[4] = tested on: Mus musculus; test: Antidiabetic activity in Nicotinamide/Streptozotocin induced male Balb/c mouse model assessed as reduction in fasting blood glucose levels at 63.81 ug/kg, ip measured after 14 days by glucometer analysis (reference value: 168.5 +/- 8.42 mg/dl); type: functional; details: dose 63.81 µg/kg, time 14 day
[5] = target: T1, Albumin; test: Inhibition of D-fructose glycation in human serum albumin model by measuring ketoamine moieties incubated for 26 days by Nitroblue tetrazolium (NBT) reduction assay (reference value: 118.21 nmol/mL); details: 624 h, time 26 day
[6] = tested on: Mus musculus; test: Antidiabetic activity in Nicotinamide/Streptozotocin induced male Balb/c mouse model assessed as reduction in alanine aminotransferase level in blood at 63.81 ug/kg, ip treated for 21 days (reference value: 111 +/- 5.05 U/L); type: functional; details: dose 63.81 µg/kg, time 21 day
[7] = target: T1, Albumin; test: Inhibition of D-fructose glycation in human serum albumin model by measuring absorbance at 279 nm incubated for 30 days by UV spectroscopic analysis (reference value: 2.323); details: 720 h, time 30 day
[8] = tested on: Mus musculus; test: Antidiabetic activity in Nicotinamide/Streptozotocin induced male Balb/c mouse model assessed as Non-HDL-Cholesterol level in blood at 63.81 ug/kg, ip treated for 21 days (reference value: 75 mg/dL); type: functional; details: dose 63.81 µg/kg, time 21 day
[9] = tested on: Mus musculus; test: Antidiabetic activity in Nicotinamide/Streptozotocin induced male Balb/c mouse model assessed as reduction in aspartate transaminase level in blood at 63.81 ug/kg, ip treated for 21 days (reference value: 171 +/- 8.55 U/L); type: functional; details: dose 63.81 µg/kg, time 21 day
[10] = tested on: Mus musculus; test: Antidiabetic activity in Nicotinamide/Streptozotocin induced male Balb/c mouse model assessed as relative liver weight at 63.81 ug/kg, ip treated for 21 days (reference value: 0.77 +/- 0.04 mg/g); type: functional; details: dose 63.81 µg/kg, time 21 day
[11] = target: T1, Albumin; test: Inhibition of D-glucose glycation in human serum albumin model by measuring absorbance at 279 nm incubated for 5 days by UV spectroscopic analysis (reference value: 0.741); details: 120 h, time 5 day
[12] = tested on: Mus musculus; test: Antidiabetic activity in Nicotinamide/Streptozotocin induced male Balb/c mouse model assessed as reduction in total cholesterol level in blood at 63.81 ug/kg, ip treated for 21 days (reference value: 121 +/- 6.05 mg/dL); type: functional; details: dose 63.81 µg/kg, time 21 day
[13] = target: T1, Albumin; test: Inhibition of D-fructose glycation in human serum albumin model by measuring ketoamine moieties incubated for 7 days by Nitroblue tetrazolium (NBT) reduction assay (reference value: 125.33 nmol/mL); details: 168 h, time 7 day
[14] = target: T1, Albumin; test: Inhibition of D-glucose glycation in human serum albumin model by measuring absorbance at 279 nm incubated for 7 days by UV spectroscopic analysis (reference value: […]); details: 168 h, time 7 day
[15] = tested on: Mus musculus; test: Antidiabetic activity in Nicotinamide/Streptozotocin induced male Balb/c mouse model assessed as reduction in HbA1c levels at 63.81 ug/kg, ip treated for 21 days by Turbidimetric immunoassay; type: functional; parameters: scale not given: the % may be the effect or the level left; details: dose 63.81 µg/kg, time 21 day
[16] = target: T1, Albumin; test: Inhibition of D-glucose glycation in human serum albumin model incubated for 14 days by UV spectroscopic analysis relative to control; details: 336 h, time 14 day
[17] = target: T1, Albumin; test: Inhibition of D-glucose glycation in human serum albumin model by measuring ketoamine moieties incubated for 5 days by Nitroblue tetrazolium (NBT) reduction assay (reference value: 18.58 nmol/mL); details: 120 h, time 5 day
[18] = target: T2, Pancreatic alpha-amylase (Sus scrofa, UniProt P00690); test: Inhibition of porcine pancreatic Alpha-amylase using starch as substrate pre-incubated for 20 mins followed by substrate addition and measured after 15 mins by DNS reagent based absorbance assay
T2 sequence (P00690 whole entry): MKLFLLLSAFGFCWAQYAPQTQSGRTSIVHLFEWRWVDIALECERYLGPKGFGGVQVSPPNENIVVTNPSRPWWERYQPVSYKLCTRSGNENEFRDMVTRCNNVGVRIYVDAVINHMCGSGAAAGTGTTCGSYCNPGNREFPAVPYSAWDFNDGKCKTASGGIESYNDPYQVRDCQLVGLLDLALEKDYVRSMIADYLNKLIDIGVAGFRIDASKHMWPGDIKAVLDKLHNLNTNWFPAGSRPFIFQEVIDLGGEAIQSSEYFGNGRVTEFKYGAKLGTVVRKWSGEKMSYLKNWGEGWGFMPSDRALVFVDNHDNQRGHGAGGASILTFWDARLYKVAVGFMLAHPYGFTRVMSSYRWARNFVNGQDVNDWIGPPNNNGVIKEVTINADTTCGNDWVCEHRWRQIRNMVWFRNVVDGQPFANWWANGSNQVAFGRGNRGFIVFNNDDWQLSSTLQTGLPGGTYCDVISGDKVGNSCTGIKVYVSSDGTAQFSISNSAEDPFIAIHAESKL

[19] = tested on: Mus musculus; test: Antidiabetic activity in Nicotinamide/Streptozotocin induced male Balb/c mouse model assessed as reduction in LDL-Cholesterol level in blood at 63.81 ug/kg, ip treated for 21 days (reference value: 46 +/- 2.30 mg/dL); type: functional; details: dose 63.81 µg/kg, time 21 day
[20] = target: T1, Albumin; test: Inhibition of D-fructose glycation in human serum albumin model by measuring ketoamine moieties incubated for 14 days by Nitroblue tetrazolium (NBT) reduction assay (reference value: 129.58 nmol/mL); details: 336 h, time 14 day
[21] = target: T1, Albumin; test: Inhibition of D-fructose glycation in human serum albumin model incubated for 14 days by UV spectroscopic analysis relative to control; details: 336 h, time 14 day

T1 sequence (P02768 whole entry): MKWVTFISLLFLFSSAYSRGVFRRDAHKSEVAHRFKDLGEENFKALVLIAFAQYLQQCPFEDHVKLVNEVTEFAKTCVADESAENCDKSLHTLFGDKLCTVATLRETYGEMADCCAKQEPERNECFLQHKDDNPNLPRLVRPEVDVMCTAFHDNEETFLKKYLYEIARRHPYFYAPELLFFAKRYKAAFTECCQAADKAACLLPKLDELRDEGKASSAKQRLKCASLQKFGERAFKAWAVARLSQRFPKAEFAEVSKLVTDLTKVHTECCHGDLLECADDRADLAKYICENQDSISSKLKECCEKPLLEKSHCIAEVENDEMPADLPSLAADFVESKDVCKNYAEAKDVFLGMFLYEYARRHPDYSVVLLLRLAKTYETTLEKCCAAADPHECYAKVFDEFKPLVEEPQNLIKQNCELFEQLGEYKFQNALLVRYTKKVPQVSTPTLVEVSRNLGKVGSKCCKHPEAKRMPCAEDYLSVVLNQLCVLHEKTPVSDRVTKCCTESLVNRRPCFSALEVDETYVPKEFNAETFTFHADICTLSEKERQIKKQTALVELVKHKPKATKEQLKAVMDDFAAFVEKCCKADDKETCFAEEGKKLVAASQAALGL

OD [1]: 0.665 | Activity [2]: 90.74 nmol/mL | inhibition (INH) [3]: 52.78% | Activity [5]: 142.17 nmol/mL | OD [7]: 1.591 | OD [11]: 0.335 | Activity [13]: 113.45 nmol/mL | OD [14]: 0.434 | inhibition (INH) [16]: 74.68% | Activity [17]: 12.342 nmol/mL | IC50 [18]: 96 µM | Activity [20]: 91.22 nmol/mL | inhibition (INH) [21]: 16.45%
Compound: N=C(N)NCCC[C@H](N)C(=O)N[C@@H](Cc1c[nH]c2ccccc12)C(=O)N[C@@H](Cc1c[nH]c2ccccc12)C(=O)O (H-Arg-Trp-Trp-OH)
Activity [4]: 134 mg/dL | Activity [6]: 97 U/L | Activity [8]: 67 mg/dL | Activity [9]: 152 U/L | Activity [10]: 1.22 mg/g | Activity [12]: 108 mg/dL | Activity [15]: 7.2% | Activity [19]: 31 mg/dL
